Entries after “also recorded” stand apart in the source; their conditions may differ. Where only a bound is given, the exact number is not on record here.

Data set [1] concerns Human MM cell U266. Kind of data set: [3H]-thymidine uptake cell proliferation assay, U266. It is filed as cell-based. Conditions: Homo sapiens, U-266; U266, 48 h, [3H]-thymidine uptake; read-out: inhibition of DNA synthesis in MM cells, IC50. Here is the method:
(§1) FIG. 2. Inhibitory effects of CB2 ligands on human MM cell growth. Human MM cell U266 (3×10^4 cells per well in 96-well plate) was exposed to the known CB2 ligands (A) or PAM (B) at indicated concentrations (0-10 μmol/L) for 48 h. Cell proliferation was measured by [^3H]-thymidine uptake assay as described in Materials and Methods. (C) U266 cells (3×10^4 per well in 96-well plate) were treated with PAM at indicated doses for 48 h. Cell viability and the viable cell number per well were determined using trypan blue exclusion assay. (D) Human chemoresistant myeloma cell lines MM.1R (dexamethasone), RPMI-8226/LR5 (melphalan) and their respective parent cells MM.1S and RPMI-8226 were exposed to PAM for 48 h. Cell proliferation was measured by ^3H-thymidine incorporation. The data presented are the mean±SD of at least 3 independent measurements. (E) [S^35]-GTPγS binding assay of different ligands on human CB2 receptor expressed in CHO cells.
(§2) A tritiated thymidine incorporation assay was carried out to investigate the effects of CB2 ligands on cell proliferation. U266, RPMI-8226 (3×10^4 cells/well), MM.1 S cells (6×10^4 cells/well), and their resistant sublines were cultured in 96-well culture plates with or without drugs for 48 hours. DNA synthesis was measured by ^3H-thymidine uptake as described previously.

Data set [2] deals with MM.1R (dexamethasone) and RPMI-8226/LR5 (melphalan) cells. Kind of data set: [3H]-thymidine incorporation, chemoresistant myeloma cell lines. The data set is classed as cell-based. Conditions: Homo sapiens; MM.1R and RPMI-8226/LR5, 48 h; read-out: growth inhibition of chemoresistant myeloma cell lines, IC50. The protocol: as §1, §2
(Dividing cells build labelled thymidine or BrdU into new DNA.)

Data set [3] deals with MM.1S and RPMI-8226 cells. Nature of the data set: [3H]-thymidine incorporation, parent myeloma cell lines. The data set is classed as cell-based, human. Conditions: MM.1S and RPMI-8226, 48 h. The protocol: as §1, §2
The target of data set [4] is T1, CB2 receptor (Homo sapiens, UniProt P34972). Kind of data set: Cell-based cAMP assay. Background: cAMP levels reflect the balance of adenylyl cyclase and phosphodiesterase activity.
Text: Cell-based cAMP assays were used to identify the mode by which the CB2 ligands according to the present invention modulate CB2 receptor.
Data set [5] deals with T2, human CB2 receptor expressed in CHO cells (Homo sapiens, UniProt P34972).
T2 construct: expressed in transfected cells; host or cells: CHO cells
Kind of data set: [35S]-GTPγS binding assay. The data set is classed as biochemical. (In general: GTPγS resists hydrolysis and so accumulates on activated G proteins.)

Data set [6] deals with MM1.S cells expressing shRNA against human CB2. Nature of the data set: Proliferation in CB2 knockdown MM1.S cells. It is filed as cell-based. Particulars: 48 h, [3H]TdR uptake. Here is the method: (§3) FIG. 3. Inhibitory activity of PAM (compound (1)) in CB2 knockdown or agonist treated cells. (A) CB2 gene silencing in MM1.S cells confirmed by Western blot with CB2antibody. (B) Human MM1.S cells expressing shRNA vector or expressing the specific shRNA against human CB2 were treated with vehicle control (white column), or the indicated concentrations of PAM (black column) for 48 h. Cell proliferation was measured by [^3H]TdR uptake. […] The cell viability and the viable cells/well were determined using trypan blue exclusion assay.

Data set [7] has as its system U266 cells. Kind of data set: Trypan blue viability of U266 cells with CB2 agonist. Conditions: Win55212-2 or CP55940, 48 h. The data set is classed as cell-based, human. Here is the method:
as §3

The test system of data set [8] is MM cells. Kind of data set: Apoptosis and cell cycle protein studies in MM cells. The data set is classed as cell-based. The source says:
Since drug resistance is a prevalent problem in multiple myeloma clinical treatment, the ability of compounds according to this invention to overcome chemoresistance of MM cells against conventional drugs such as dexamethasone or melphalan provides an unexpected advantageous benefit in MM treatment. The present inventors have hypothesized that the cell inhibitory activity of the inventive compounds is due to their ability to activate apoptotic processes.
Compound (1) also altered certain proteins that are known to play a role in the cell-growth cycle. […] To further explore this observation, the present inventors investigated the effect of compound (1) on several proteins involved in cell G2-M phase transition.

The subject of data set [9] is bone marrow mononuclear cells (MNC). Nature of the data set: RANKL-induced osteoclast formation in bone marrow mononuclear cells. It is filed as cell-based, murine and human. The protocol:
FIG. 4. Effects of XIE35 and compound (1) on RANKL-induced osteoclast formation in bone marrow mononuclear cells (MNC). […] Half-medium change was performed every other day using drug-containing media where appropriate. After 5 days, the cells were fixed and stained for TRAP activity using a TRAP-staining kit (Sigma-Aldrich) according to the manufacturer's instructions. Lower panel: Human bone marrow MNCs (1×10^5 per well) were treated with rhRANKL (50 ng/ml) plus rhM-CSF (10 ng/ml), and the respective compounds as described above. After three weeks, differentiation into OCLs was assessed by staining with monoclonal antibody 23c6 using a Vectastatin-ABC-AP kit (Vector Laboratories). The antibody 23c6, which recognizes CD51/61 dimer constituting the OCL vitronectin receptor, was kindly provided by the Bone Biology Center of our university. Images were obtained with an Olympus IX70 microscope. Arrows designate the typical multinucleated osteoclasts with 3 or more nuclei.

Data set [10] concerns the target T1, CB2 receptor. Nature of the data set: [3H]CP-55,940 radioligand competition binding, CB2. More on the design: host or cells: cell membrane preparations.

T1 sequence (P34972 whole entry): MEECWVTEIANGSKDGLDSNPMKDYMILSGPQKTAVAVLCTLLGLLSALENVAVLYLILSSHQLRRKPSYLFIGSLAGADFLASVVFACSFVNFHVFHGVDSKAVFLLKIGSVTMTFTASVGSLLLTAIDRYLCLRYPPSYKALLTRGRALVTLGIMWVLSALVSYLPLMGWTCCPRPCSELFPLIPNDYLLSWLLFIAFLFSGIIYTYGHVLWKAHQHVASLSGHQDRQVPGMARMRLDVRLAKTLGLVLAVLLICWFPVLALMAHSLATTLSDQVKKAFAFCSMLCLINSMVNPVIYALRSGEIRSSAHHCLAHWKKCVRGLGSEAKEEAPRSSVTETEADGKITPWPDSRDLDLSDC
T2 sequence (P34972 whole entry): as above

On to `CN(C)c1ccc(C(NC(=O)Cc2ccccc2)NC(=O)Cc2ccccc2)cc1` [Compound 1, N,N′-((4-(dimethylamino)phenyl)methylene)bis(2-phenylacetamide)], for which the IC50 in data set [1] is 1.25 µM. The IC50 in data set [2] lay in the range of 0.6 to 1.2 µM. Further, the “growth inhibitory effect on parent cells” value in [3] is “no growth inhibitory effect”. Further, in data set [4], the “mode of CB2 modulation (c-AMP studies)” value is on record as “inverse agonist”. For the same molecule, the “CB2 receptor modulatory activity ([35S]-GTPγS)” value in data set [5] was “inverse CB2 receptor agonist”. For the same molecule, in [6], the “anti-MM activity after stable knockout of CB2” value is reported as “largely abrogated”. Further, in [7], the “inhibition of MM cell growth after pretreatment with CB2 agonist” value is recorded as “attenuated”. For the same molecule, in [8], the “ER stress-induced transcription factor CHOP” value is on record as “transiently upregulated”, the H2A.X phosphorylation entry is “did not have any effect”, the “MAPK family members in treated MM cells” value was “not up regulated” and the “effect on Cdc25C activation of Cdc2” value was “prevents the tyrosine phosphatase Cdc25C from activating cyclin-B bound Cdc2”. Besides, in data set [8] (various concentrations), the “number of cells in the G0-G1 phase” value is “does not change”; the “number of cells in the S-phase and G2-M phase” value is listed as “decreased in a dose dependent manner”. For the same molecule, the “RANKL/M-CSF induced osteoclast formation” value in data set [9] (1 μM, murine 5 days, human three weeks) was “anti-osteoclast activity; also recorded: completely blocking osteoclast formation”. Further, in data set [9] (concentrations as high as 1 μM), the toxicity entry is given as “non-toxic”. In addition, the “SI: selectivity index for CB2” value in data set [10] (Ki(CB1)/Ki(CB2) ratio) is reported as greater than 26. In [10] ([3H]CP-55,940 displacement, read-out: Ki (CB2)), the Ki was 0.777 µM.

What is called IC50 is the concentration that gives 50% inhibition. For orientation: Ki means the dissociation constant of the complex between target and ligand, obtained from inhibition or displacement.

The values above are taken from patent US9376380B2 (University of Pittsburgh—Of the Commonwealth System of …, priority 2011, dated 2016).
